# Several values for one entry are separate records, joined by “and”; a condition that tells them apart may be missing. Equal values may be shown once. Read-outs that look alike come from different tables or passages of the source.
# Tests used:
# virus infections = experiment: Antiviral screening program, several viruses; settings: mouse, in vivo
# [1] = system: Influenza B Massachusetts virus; experiment: Chemoprophylaxis of Influenza B Massachusetts virus infection in mice; format: in vivo, mouse; settings: oral
# Experimental: The activity of four compounds on Influenza B Mass. was tested in mice.
# A portion of a commercially available sample of amantadine was recrystallized from isopropanol. The activity of the material against Influenza B Mass. was tested for the sample as obtained, the recrystallized portion, and the mother liquor obtained from recrystallizing the portion.
# [2] = system: Influenza Ann Arbor virus; experiment: Chemoprophylaxis of Influenza Ann Arbor (A1) virus infection in mice; format: in vivo, mouse; settings: oral
# Influenza PR 8 virus = experiment: Chemoprophylaxis of Influenza PR 8 virus infection in mice; format: in vivo, mouse
# Herpes virus [3] = format: in vivo, mouse
# Herpes virus [4] = experiment: Herpes virus in eggs (chick embryo survival); format: in vivo, chicken eggs; settings: for Deaths on day 1 / Deaths on day 2 / Deaths on day 3 / Total Deaths 4th Day / Deaths on day 4: 12 eggs
# Vaccinia virus = format: in vivo; settings: scarified rabbit skin
# [5] = subcutaneous, total dose .0005 μg
smiles,measurement,setting,value
"NNC(=O)c1ccncc1 [Isoniazid, isoniazid, reference compound]",activity (in words),virus infections,"active against Influenza PR 8, Influenza Ann Arbor, Influenza B Mass., and Herpes virus"
same,No. animals surviving after 5 days,[1]; total dose .000005 μg,3
same,No. animals surviving when 100% controls are dead,[1]; total dose .000005 μg,0
same,Survivors,[1]; total dose .000005 μg,0
same,No. animals surviving after 5 days,[1]; total dose .00005 μg,2
same,No. animals surviving when 100% controls are dead,[1]; total dose .00005 μg,1
same,Survivors,[1]; total dose .00005 μg,0
same,No. animals surviving after 5 days,[1]; total dose .0005 μg,3
same,No. animals surviving when 100% controls are dead,[1]; total dose .0005 μg,2
same,Survivors,[1]; total dose .0005 μg,0
same,No. animals surviving after 5 days,[1]; total dose .005 μg,5
same,No. animals surviving when 100% controls are dead,[1]; total dose .005 μg,1
same,Survivors,[1]; total dose .005 μg,0
same,No. animals surviving after 5 days,[1]; total dose .05 μg,3
same,No. animals surviving when 100% controls are dead,[1]; total dose .05 μg,1
same,Survivors,[1]; total dose .05 μg,0
same,No. animals surviving after 5 days,[1]; total dose .5 μg,3
same,No. animals surviving when 100% controls are dead,[1]; total dose .5 μg,0
same,Survivors,[1]; total dose .5 μg,0
same,Survivors,[2]; total dose .005 μg,2
same,Survivors,[2]; total dose .05 μg,2 and 1
same,Survivors,[2]; total dose .5 μg,2 and 1
same,No. animals surviving after 7 days,"Influenza PR 8 virus; oral, total dose 5 μg",5
same,Survivors,"Influenza PR 8 virus; oral, total dose 5 μg",2
same,No. animals surviving after 7 days,"Influenza PR 8 virus; oral, total dose .0000005 μg",1
same,Survivors,"Influenza PR 8 virus; oral, total dose .0000005 μg",0
same,No. animals surviving after 7 days,"Influenza PR 8 virus; oral, total dose .000005 μg",2
same,Survivors,"Influenza PR 8 virus; oral, total dose .000005 μg",0
same,No. animals surviving after 7 days,"Influenza PR 8 virus; oral, total dose .00005 μg",0
same,Survivors,"Influenza PR 8 virus; oral, total dose .00005 μg",0
same,No. animals surviving after 7 days,"Influenza PR 8 virus; oral, total dose .0005 μg",0
same,Survivors,"Influenza PR 8 virus; oral, total dose .0005 μg",0
same,No. animals surviving after 7 days,"Influenza PR 8 virus; oral, total dose .005 μg",1
same,Survivors,"Influenza PR 8 virus; oral, total dose .005 μg",1
same,No. animals surviving after 7 days,"Influenza PR 8 virus; oral, total dose .05 μg",2
same,Survivors,"Influenza PR 8 virus; oral, total dose .05 μg",1
same,No. animals surviving after 7 days,"Influenza PR 8 virus; oral, total dose .5 μg",2
same,Survivors,"Influenza PR 8 virus; oral, total dose .5 μg",1
same,No. animals surviving after 6 days,"Herpes virus [3]; mouse, in vivo, po",2 and 1
same,Survivors,"Herpes virus [3]; oral, total dose .0000005 μg",1
same,No. animals surviving when 17/20 controls are dead,"Herpes virus [3]; oral, total dose .000005 μg",3
same,No. animals surviving after 6 days,"Herpes virus [3]; oral, total dose .00005 μg",0
same,No. animals surviving when 17/20 controls are dead,"Herpes virus [3]; oral, total dose .00005 μg",3
same,No. animals surviving after 6 days,"Herpes virus [3]; oral, total dose .0005 μg",3
same,No. animals surviving when 17/20 controls are dead,"Herpes virus [3]; oral, total dose .0005 μg",0
same,No. animals surviving when 17/20 controls are dead,"Herpes virus [3]; oral, total dose .005 μg",2
same,No. animals surviving when 17/20 controls are dead,"Herpes virus [3]; oral, total dose .05 μg",1
same,Survivors,"Herpes virus [3]; oral, total dose .05 μg",1
"CCC(C)=NNC(N)=S [2-Butanone, thiosemicarbazone, 2-butanone, thiosemicarbazone]",activity (in words),virus infections,one of the most active compounds that has been studied to date
same,"No. Hatched, total",Herpes virus [4]; all doses,5
same,"No. Living Longer Than Controls, total",Herpes virus [4]; all doses,12
same,Deaths on day 1,Herpes virus [4]; dose 2 μg,1
same,Deaths on day 2,Herpes virus [4]; dose 2 μg,5
same,Deaths on day 3,Herpes virus [4]; dose 2 μg,3
same,Total Deaths 4th Day,Herpes virus [4]; dose 2 μg,9
same,Deaths on day 2,Herpes virus [4]; dose 20 μg,5
same,Deaths on day 3,Herpes virus [4]; dose 20 μg,1
same,Deaths on day 4,Herpes virus [4]; dose 20 μg,2
same,Total Deaths 4th Day,Herpes virus [4]; dose 20 μg,8
same,Deaths on day 1,Herpes virus [4]; dose .00005 μg,2
same,Deaths on day 2,Herpes virus [4]; dose .00005 μg,4
same,Deaths on day 3,Herpes virus [4]; dose .00005 μg,5
same,Total Deaths 4th Day,Herpes virus [4]; dose .00005 μg,11
same,Deaths on day 1,Herpes virus [4]; dose .0005 μg,1
same,Deaths on day 2,Herpes virus [4]; dose .0005 μg,5
same,Deaths on day 3,Herpes virus [4]; dose .0005 μg,3
same,Deaths on day 4,Herpes virus [4]; dose .0005 μg,1
same,Total Deaths 4th Day,Herpes virus [4]; dose .0005 μg,10
same,Deaths on day 1,Herpes virus [4]; dose .005 μg,2
same,Deaths on day 2,Herpes virus [4]; dose .005 μg,4
same,Deaths on day 3,Herpes virus [4]; dose .005 μg,2
same,Deaths on day 4,Herpes virus [4]; dose .005 μg,3
same,Total Deaths 4th Day,Herpes virus [4]; dose .005 μg,11
same,Deaths on day 1,Herpes virus [4]; dose .05 μg,2
same,Deaths on day 2,Herpes virus [4]; dose .05 μg,6
same,Deaths on day 3,Herpes virus [4]; dose .05 μg,3
same,Total Deaths 4th Day,Herpes virus [4]; dose .05 μg,11
same,Deaths on day 1,Herpes virus [4]; dose .5 μg,1
same,Deaths on day 2,Herpes virus [4]; dose .5 μg,3
same,Deaths on day 3,Herpes virus [4]; dose .5 μg,6
same,Deaths on day 4,Herpes virus [4]; dose .5 μg,2
same,Total Deaths 4th Day,Herpes virus [4]; dose .5 μg,12
same,No. animals surviving after 5 days,[1]; total dose .000005 μg,6
same,No. animals surviving when 100% controls are dead,[1]; total dose .000005 μg,3
same,Survivors,[1]; total dose .000005 μg,2
same,No. animals surviving after 5 days,[1]; total dose .00005 μg,8
same,No. animals surviving when 100% controls are dead,[1]; total dose .00005 μg,3
same,Survivors,[1]; total dose .00005 μg,2
same,No. animals surviving after 5 days,[1]; total dose .0005 μg,7
same,No. animals surviving when 100% controls are dead,[1]; total dose .0005 μg,1
same,Survivors,[1]; total dose .0005 μg,0
same,No. animals surviving after 5 days,[1]; total dose .005 μg,4
same,No. animals surviving when 100% controls are dead,[1]; total dose .005 μg,0
same,Survivors,[1]; total dose .005 μg,0
same,No. animals surviving after 5 days,[1]; total dose .05 μg,4
same,No. animals surviving when 100% controls are dead,[1]; total dose .05 μg,2
same,Survivors,[1]; total dose .05 μg,0
same,No. animals surviving after 5 days,[1]; total dose .5 μg,5
same,No. animals surviving when 100% controls are dead,[1]; total dose .5 μg,4
same,Survivors,[1]; total dose .5 μg,1
same,Survivors,"Influenza PR 8 virus; drinking water 24 h post-infection only, first printed value (concentration column unclear)",0
same,Survivors,"Influenza PR 8 virus; drinking water 24 h pre- and 24 h post-infection, 0.5 mg/ml",1
same,No. animals surviving after 6 days,"Influenza PR 8 virus; oral, total dose .000005 μg",6
same,No. animals surviving after 7 days,"Influenza PR 8 virus; oral, total dose .000005 μg",4
same,No. animals surviving after 6 days,"Influenza PR 8 virus; oral, total dose .00005 μg",5
same,No. animals surviving after 7 days,"Influenza PR 8 virus; oral, total dose .00005 μg",8
same,No. animals surviving when 19/20 of controls are dead,"Influenza PR 8 virus; oral, total dose .00005 μg",4
same,Survivors,"Influenza PR 8 virus; oral, total dose .00005 μg",4
same,No. animals surviving when 19/20 of controls are dead,"Influenza PR 8 virus; oral, total dose .0005 μg",1
same,Survivors,"Influenza PR 8 virus; oral, total dose .0005 μg",1
same,No. animals surviving when 19/20 of controls are dead,"Influenza PR 8 virus; oral, total dose .005 μg",0
same,Survivors,"Influenza PR 8 virus; subcutaneous, total dose .000005 μg",0
same,Survivors,"Influenza PR 8 virus; subcutaneous, total dose .00005 μg",0
same,No. animals surviving after 6 days,Influenza PR 8 virus; [5],1
same,Survivors,Influenza PR 8 virus; [5],1
same,Survivors,"Influenza PR 8 virus; subcutaneous, total dose .005 μg",0
same,No. animals surviving when 17/20 controls are dead,"Herpes virus [3]; oral, total dose .000005 μg",0
same,Survivors,"Herpes virus [3]; oral, total dose .000005 μg",0
same,No. animals surviving when 17/20 controls are dead,"Herpes virus [3]; oral, total dose .00005 μg",4
same,No. animals surviving when 17/20 controls are dead,"Herpes virus [3]; oral, total dose .0005 μg",5
same,Survivors,"Herpes virus [3]; oral, total dose .0005 μg",4
same,No. animals surviving when 17/20 controls are dead,"Herpes virus [3]; oral, total dose .05 μg",0
same,Survivors,"Herpes virus [3]; oral, total dose .05 μg",0
same,effect on pox formation,Vaccinia virus,variable
